Assay results reported in ChEMBL document CHEMBL1201862, “PubChem BioAssay data set” (2004).
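A five-concentration, 48-hour dose response in 96-well plates underlies each endpoint, interpolated linearly between surrounding concentrations. GI50 = concentration required for 50% inhibition of growth.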 Activity calls are given as the source filed them. Rule as the data show it: active = GI50 up to about 1.1 µM and inactive = higher.

Assays:
Assay in all cases: NCI tumour cell line growth inhibition, 48 h
SNB-75 = system: SNB-75
SF-539 = system: SF-539
ACHN = system: ACHN
K562 = system: K562
SK-MEL-2 = system: SK-MEL-2
HL-60 = system: HL-60
SF-295 = system: SF-295
SNB-19 = system: SNB-19
UACC-257 = system: UACC-257
SK-MEL-5 = system: SK-MEL-5
RPMI-8226 = system: RPMI-8226
HCT-116 = system: HCT-116
MOLT-4 = system: MOLT-4
OVCAR-4 = system: OVCAR-4
NCI-H226 = system: NCI-H226
RXF 393 = system: RXF 393
CCRF-CEM = system: CCRF-CEM
SK-MEL-28 = system: SK-MEL-28
HOP-92 = system: HOP-92
UO-31 = system: UO-31

Measured: GI50

CCOC(=O)C1CCn2c(nc3c(=O)n(C)c(=O)n(C)c32)S1 (stereo not given)
inactive: SNB-75 > 100 µM | SF-539 > 100 µM | ACHN > 100 µM | K562 > 100 µM | SK-MEL-2 > 100 µM | HL-60 > 100 µM | SF-295 > 100 µM | SNB-19 > 100 µM | UACC-257 > 100 µM | SK-MEL-5 > 100 µM | RPMI-8226 > 100 µM | HCT-116 > 100 µM | MOLT-4 > 100 µM | OVCAR-4 > 100 µM | NCI-H226 > 100 µM | RXF 393 > 100 µM | CCRF-CEM > 100 µM

COC(=O)N1C=Cc2c(c(C)c3c([nH]c4ccccc43)c2C)C1C (stereo not given)
inactive: SNB-75 15.3 µM | SF-539 17.1 µM | ACHN > 10 µM | K562 6.19 µM | SK-MEL-2 18.3 µM | HL-60 19.2 µM | SF-295 13.7 µM | SNB-19 18 µM | UACC-257 17.3 µM | SK-MEL-28 15.5 µM | SK-MEL-5 15.3 µM | RPMI-8226 7.62 µM | HCT-116 12.9 µM | HOP-92 20.1 µM | MOLT-4 5.97 µM | OVCAR-4 12.3 µM | NCI-H226 17.6 µM | CCRF-CEM 14.8 µM | UO-31 18.5 µM

NC(CCCCNCc1ccccc1)C(=O)O (stereo not given)
inactive: SNB-75 > 100 µM | SF-539 > 100 µM | ACHN > 100 µM | K562 > 100 µM | SK-MEL-2 > 100 µM | HL-60 > 100 µM | SF-295 > 100 µM | SNB-19 > 100 µM | UACC-257 > 100 µM | SK-MEL-28 > 100 µM | SK-MEL-5 > 100 µM | RPMI-8226 > 100 µM | HCT-116 > 100 µM | HOP-92 > 100 µM | MOLT-4 > 100 µM | OVCAR-4 > 100 µM | NCI-H226 > 100 µM | CCRF-CEM > 100 µM | UO-31 > 100 µM

Cc1ncc2c(n1)CCC1=C2OS(=O)(=O)CC1N(C)C (stereo not given)
inactive: SNB-75 > 100 µM | SF-539 > 100 µM | ACHN > 100 µM | K562 > 100 µM | HL-60 > 100 µM | SNB-19 > 100 µM | UACC-257 > 100 µM | SK-MEL-28 > 100 µM | SK-MEL-5 70 µM | RPMI-8226 > 100 µM | HCT-116 98.2 µM | MOLT-4 > 100 µM | OVCAR-4 > 100 µM | NCI-H226 > 100 µM | CCRF-CEM 80.5 µM | UO-31 > 100 µM

CC(=O)c1cc2sc3ccccc3c2[nH]1
inactive: SF-539 > 100 µM | ACHN > 100 µM | K562 > 100 µM | SK-MEL-2 > 100 µM | SF-295 > 100 µM | SNB-19 > 100 µM | SK-MEL-28 > 100 µM | SK-MEL-5 > 100 µM | RPMI-8226 16.3 µM | HCT-116 > 100 µM | HOP-92 > 100 µM | MOLT-4 > 100 µM | OVCAR-4 > 100 µM | RXF 393 > 100 µM | UO-31 56.4 µM

COc1cc(OC)nc(-n2c(N)c(C(=O)O)c3ccc([N+](=O)[O-])cc3c2=O)n1
inactive: SNB-75 > 100 µM | ACHN > 100 µM | K562 > 100 µM | SK-MEL-2 > 100 µM | HL-60 60.5 µM | SF-295 > 100 µM | SNB-19 > 100 µM | SK-MEL-28 97.7 µM | SK-MEL-5 > 100 µM | RPMI-8226 > 100 µM | HCT-116 > 100 µM | MOLT-4 > 100 µM | OVCAR-4 > 100 µM | NCI-H226 > 100 µM | RXF 393 > 100 µM | CCRF-CEM 63.1 µM | UO-31 71.1 µM

O=C1NC2CCCCCC2C12CCCCC2 (stereo not given)
inactive: SNB-75 > 100 µM | SF-539 > 100 µM | ACHN > 100 µM | K562 > 100 µM | HL-60 > 100 µM | SF-295 > 100 µM | SNB-19 > 100 µM | UACC-257 > 100 µM | SK-MEL-28 > 100 µM | HCT-116 > 100 µM | MOLT-4 > 100 µM | OVCAR-4 > 100 µM | NCI-H226 > 100 µM | RXF 393 > 100 µM | CCRF-CEM > 100 µM | UO-31 > 100 µM

Cn1c2ccccc2c2ccc3c(c21)C(=O)C(c1ccccc1)=CC3=O
inactive: SNB-75 9.31 µM | SF-539 24.2 µM | ACHN 54.2 µM | K562 4.75 µM | SK-MEL-2 22 µM | HL-60 14.4 µM | SF-295 61.4 µM | SNB-19 42.5 µM | UACC-257 32.7 µM | SK-MEL-28 24 µM | SK-MEL-5 22.8 µM | RPMI-8226 23.6 µM | HCT-116 14.5 µM | HOP-92 15.7 µM | MOLT-4 14.8 µM | NCI-H226 11.7 µM | CCRF-CEM 9.62 µM | UO-31 31.1 µM

COC(=O)C1(OC(=O)Sc2ccccc2)CCN(C)CC1
inactive: SNB-75 16.8 µM | SF-539 10.8 µM | ACHN 15.7 µM | K562 22.4 µM | SK-MEL-2 58.3 µM | HL-60 5.96 µM | SF-295 25.2 µM | SNB-19 28.3 µM | UACC-257 20.2 µM | SK-MEL-28 27.9 µM | SK-MEL-5 22.6 µM | RPMI-8226 6.38 µM | HCT-116 14.9 µM | MOLT-4 6.68 µM | OVCAR-4 23.2 µM | NCI-H226 13.6 µM | RXF 393 14.3 µM | CCRF-CEM 1.84 µM | UO-31 3.79 µM

O=c1cnnc2sc(=S)[nH]n12
inactive: SF-539 > 100 µM | ACHN 53.5 µM | K562 15.6 µM | SK-MEL-2 > 100 µM | HL-60 16.6 µM | SF-295 2.97 µM | SNB-19 27.4 µM | UACC-257 15.9 µM | SK-MEL-28 65.5 µM | SK-MEL-5 20.1 µM | RPMI-8226 13.7 µM | HCT-116 > 100 µM | MOLT-4 15 µM | OVCAR-4 16.7 µM | CCRF-CEM 2.07 µM | UO-31 22.2 µM

N#C/C(=C/c1ccco1)C(=O)c1ccccc1
inactive: SNB-75 > 100 µM | SF-539 > 100 µM | ACHN > 100 µM | K562 > 100 µM | SK-MEL-2 > 100 µM | HL-60 > 100 µM | SF-295 > 100 µM | UACC-257 > 100 µM | SK-MEL-28 > 100 µM | SK-MEL-5 > 100 µM | RPMI-8226 > 100 µM | HCT-116 > 100 µM | HOP-92 > 100 µM | MOLT-4 > 100 µM | OVCAR-4 > 100 µM | NCI-H226 > 100 µM | CCRF-CEM > 100 µM | UO-31 > 100 µM

Cc1cc(C)c(S(=O)(=O)N(CCCCCCN)OCCCN)c(C)c1
inactive: SNB-75 10.3 µM | SF-539 18.2 µM | ACHN 17.2 µM | K562 26.4 µM | SK-MEL-2 20.2 µM | HL-60 12.3 µM | SF-295 18.5 µM | SNB-19 19.3 µM | UACC-257 15.8 µM | SK-MEL-28 18.1 µM | SK-MEL-5 19.2 µM | RPMI-8226 31.6 µM | HCT-116 17.5 µM | HOP-92 15.7 µM | MOLT-4 15.3 µM | OVCAR-4 20.2 µM | NCI-H226 19.6 µM | CCRF-CEM 16.1 µM | UO-31 19.5 µM

COc1ccc(/C(Cl)=C(\C=O)c2ccc(OC)c(OC)c2)cc1
inactive: SNB-75 21.7 µM | SF-539 23.8 µM | ACHN 35.3 µM | K562 21 µM | SK-MEL-2 18.5 µM | HL-60 8.85 µM | SF-295 25.4 µM | SNB-19 41.1 µM | SK-MEL-28 > 100 µM | SK-MEL-5 39.2 µM | RPMI-8226 16.5 µM | HOP-92 20.8 µM | MOLT-4 28.6 µM | NCI-H226 34.1 µM | CCRF-CEM 21.6 µM | UO-31 40.5 µM

COc1ccc(CC2(O)C3CC4CCC2C4C3)cc1 (stereo not given)
inactive: SNB-75 48.9 µM | ACHN > 100 µM | K562 49.1 µM | SK-MEL-2 > 100 µM | HL-60 51.1 µM | SF-295 42.6 µM | SNB-19 > 100 µM | UACC-257 38.5 µM | SK-MEL-28 > 100 µM | SK-MEL-5 31.9 µM | RPMI-8226 > 100 µM | HOP-92 58.5 µM | MOLT-4 45 µM | OVCAR-4 > 100 µM | NCI-H226 88.1 µM | CCRF-CEM 42 µM | UO-31 49.7 µM

COc1cc(/C=C/C(=O)CC(=O)/C=C/c2ccc(O)c(OC)c2)ccc1O [CURCUMIN]
inactive: SNB-75 6.84 µM | SF-539 2.84 µM | ACHN 12.4 µM | K562 3.13 µM | SK-MEL-2 16.5 µM | HL-60 7.33 µM | SF-295 8.04 µM | SNB-19 9.42 µM | UACC-257 11.5 µM | SK-MEL-28 4.5 µM | SK-MEL-5 8.81 µM | RPMI-8226 2.09 µM | HCT-116 2.92 µM | MOLT-4 4.68 µM | OVCAR-4 9.33 µM | NCI-H226 18.8 µM | RXF 393 3 µM | CCRF-CEM 3.03 µM | UO-31 11.3 µM

CCOc1cc(C=O)ccc1O [ETHYL VANILLIN]
inactive: SNB-75 95.1 µM | SF-539 > 100 µM | ACHN > 100 µM | K562 > 100 µM | SK-MEL-2 > 100 µM | HL-60 > 100 µM | SF-295 > 100 µM | SNB-19 > 100 µM | UACC-257 > 100 µM | SK-MEL-28 > 100 µM | SK-MEL-5 > 100 µM | RPMI-8226 > 100 µM | HCT-116 > 100 µM | HOP-92 > 100 µM | MOLT-4 > 100 µM | OVCAR-4 > 100 µM | NCI-H226 > 100 µM | CCRF-CEM > 10 µM | UO-31 > 100 µM
